Values after ≈ are worked out from the molar mass of the structure shown. Like-named read-outs stand apart in the source and are kept apart here.
Legend:
HIV-1 = details: cited from earlier work
HSV-1 (KOS) = assay: Organotypic epithelial raft cultures infected with HSV-1; type: cell-based
Procedure: (§1) For the preparation of epidermal equivalents, a collagen matrix solution was made with collagen mixed on ice with 10-fold concentrated HAM's F12 media, 10-fold reconstitution buffer and Swiss 3T3 J2 fibroblasts. One milliliter of the collagen matrix solution was poured into the wells of 24-well microtiter plates. After gel equilibration with 1 ml of growth medium overnight at 37° C., 2.5×10^5 PHK cells were seeded on the top of the gels and maintained submerged for 24-48 hours. The collagen rafts were raised and placed onto stainless-steel grids at the interface between air and liquid culture medium. The growth medium was a mixture of ⅓ HAM F12 and ⅔ Dulbecco's modified Eagle's medium, with the same supplements as used for the Keratinocyte-SFM. Epithelial cells were allowed to stratify, the medium being replaced every 2-3 days. For the evaluation of the antiviral effects of the compounds in the raft system, two series of rafts were run in parallel, one for histological examination and the other one for quantification of viral production by a plaque reduction assay. Rafts were infected with 5,000 PFU of HSV-1 (KOS) or […] strains after 10 days post-lifting and then the medium was replaced by medium containing different dilutions of the compounds. The growth medium containing the different concentrations of the compounds was changed two days later and 3 days later (after 15 days of differentiation), one series of rafts was fixed in 10% buffered formalin, embedded in paraffin and stained with hematoxylin and eosin for histological evaluation. Another series of rafts was used to quantify virus production. For that purpose, each raft was frozen in 3 ml phosphate buffer saline (PBS) and thawed to release the virus from the infected epithelium. Supernatants were clarified by centrifugation at 1,800 rpm and titrated by a plaque assay in HEL cell cultures. Virus production in each raft was then calculated. Two rafts were used for each drug concentration to determine the effects of the compounds on virus yield.

[1] = tested on: HSV-1 wt clinical isolates; assay: HSV CPE reduction assay, clinical isolates in HEL fibroblast cell cultures; type: cell-based; details: Human alphaherpesvirus 1, Fibroblast
[2] = tested on: organotypic raft cultures of keratinocytes; assay: Toxic effects in organotypic epithelial raft cultures; type: cell-based; details: highest concentration, 200 μg/ml
Procedure: as §1

HSV-2 (G) [3] = assay: Co-infection of TZM-bl cells with HIV-1 and HSV-2: HSV-2-induced cytopathicity; type: cell-based; details: TZM-bl cultures co-infected with HIV-1(NL4.3) and HSV-2(G)
Procedure: The TZM-bl cell line is derived from HeLa cells and expresses high levels of CD4, CCR5 and CXCR4. In addition, this cell line is stably transduced with a LTR-driven firefly luciferase and E. coli-galactosidase gene (15). In a 96-well tray, 10,000 TZM-bl cells were seeded on day 1. […] Next, 100 μl of a virus suspension containing either HIV-1 (NL4.3), HSV-2 (G) or both viruses together was administered. Two to three days post infection, HIV-1 infection was monitored based on the determination of luciferase activity. For this means, 100 μl of culture supernatant was removed and 100 μl of Bright-Glo Luciferase Assay Substrate (Promega, Madison, USA) was added. The luminescence signal was measured using the Safire 2 microtiter plate reader (Tecan, Männedorf, Switzerland). A control condition containing only mock-infected cells was also included to measure the background luminescence levels. Three days post infection, HSV-2-induced cytopathicity was recorded microscopically based on giant cell formation.

HSV-2 (G) [4] = assay: Organotypic epithelial raft cultures infected with HSV-2; type: cell-based
Procedure: as §1

[5] = tested on: HSV-2 strain MS (HSV-2MS); assay: Human ex vivo tonsillar tissue, HSV DNA release by real-time PCR; type: cell-based

C[C@H](Cn1cnc2c(N)ncnc21)OCP(=O)(O)O [tenofovir, (R)-9-(2-phosphonylmethoxypropyl)adenine]
reduction of HIV-1 transmission (HIV-1; 1% gel, women with high adherence): 54%
overall decrease in the frequency of the sexual transmission of HIV-1 (HIV-1; formulated as a 1% gel, approximately 900 African women): 39%
protection of the epithelium from HSV-1-induced cytopathic effect (HSV-1 (KOS); 20 μg/ml): full destruction
protection of the epithelium from HSV-1-induced cytopathic effect (HSV-1 (KOS); 50 μg/ml): partial protection
reduction in virus yield (HSV-1 (KOS); HSV-1, 50 μg/ml): 0.81 logs
log reduction in virus production (PFU) per raft (HSV-1 (KOS); HSV-1, 200 μg/ml): 2.6 log
concentration giving complete protection from virus-induced cytopathic effect (HSV-1 (KOS); reference HSV-1 laboratory strain): 200 µg/mL
EC50 ([1]; read-out: mean EC50): 130 mg/L (≈ 453 µM)
EC50 ([1]; read-out: range of EC50): 114 to 160 mg/L (≈ 397 to 557 µM)
toxic effects (increase in number of dead cells or alteration of differentiation) [2]: No toxic effects
drug concentration that prevented HSV-2 infection (HSV-2 (G) [3]): ~60 µg/mL
protection of the epithelium against HSV-2-induced cytopathicity (morphological analysis) (HSV-2 (G) [4]; 2 μg/ml): inactive
protection of the epithelium against HSV-2-induced cytopathicity (morphological analysis) (HSV-2 (G) [4]; 20 μg/ml and 5 μg/ml): partially protective
protection of the epithelium against HSV-2-induced cytopathicity (morphological analysis) (HSV-2 (G) [4]; 200 μg/ml and 50 μg/ml): protected the entire epithelium
reduction in virus production (HSV-2 (G) [4]; HSV-2, 20 μg/ml): 0.9 log
reduction in virus yield (HSV-2 (G) [4]; HSV-2, 50 μg/ml): 1.75 logs
log reduction in virus production (PFU) per raft (HSV-2 (G) [4]; HSV-2, 200 μg/ml): 5.4 log
reduction of virus replication in the rafts (HSV-2 (G) [4]; lower concentrations (below 20 μg/ml)): unable to reduce virus replication
reduction of replication compared to infected donor matched-untreated tissue ([5]; 66 μg/ml, HSV-2MS): 89±2%
release of viral DNA in culture medium ([5]; 66 μg/ml, day 9 post infection, IQR 5.7-6.1, untreated 7.3): 5.8 log10 DNA copies/ml
EC50 ([5]; Human alphaherpesvirus 2, read-out: EC50, suppression of replication): 19 mg/L (≈ 66.2 µM)

Reference: patent publication US20130216590A1, “TOPICAL ANTIVIRAL FORMULATIONS FOR PREVENTION OF TRANSMISSION OF HSV-2” (priority 2010, published 2013)
